Experimental data reported in patent US10167262B2, “Herbicidal substituted 3-arylpyrazoles” (FMC CORPORATION, priority 2014, dated 2019).

Tests used:
Format in all cases: in vivo
[1] = system: barnyardgrass (Echinochloa crus-galli); test: Test A pre-/postemergence greenhouse herbicide test, visual injury rating 0-100
Method in brief: (§1)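 Postemergence treatment targeted seedlings 2 to 10 cm high with one to two leaves, while preemergence treatment was a directed spray onto freshly planted loam/sand soil. Injury was scored visually about 10 days later.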

corn (Zea mays) = test: as above
Method in brief: as §1

[2] = system: giant foxtail (Setaria faberii); test: as above
Method in brief: as §1

[3] = system: large (Lg) crabgrass (Digitaria sanguinalis); test: as above
Method in brief: as §1

[4] = system: morningglory (Ipomoea spp.); test: as above
Method in brief: as §1

[5] = system: pigweed (Amaranthus retroflexus); test: as above
Method in brief: as §1

[6] = system: velvetleaf (Abutilon theophrasti); test: as above
Method in brief: as §1

[7] = system: wheat (Triticum aestivum); test: as above
Method in brief: as §1

[8] = system: barnyardgrass (Echinochloa crus-galli); test: Test B flooded paddy test, plant response rating 0-100; details: Flood, 250 g ai/ha; scale 0 to 100 (0 no effect, 100 complete control); 13 to 15 days
Method in brief: (§2)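 In-water treatment: compound dosed into 3 cm flood over soil, water level unchanged throughout. Controls run alongside; visual assessment at day 13–15.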

[9] = system: ducksalad (Heteranthera limosa); test: as above; details: Flood, 250 g ai/ha; scale 0 to 100 (0 no effect, 100 complete control); 13 to 15 days
Method in brief: as §2

rice (Oryza sativa) = test: as above; details: Flood, 250 g ai/ha; scale 0 to 100 (0 no effect, 100 complete control); 13 to 15 days
Method in brief: as §2

[10] = system: sedge, umbrella (small-flower umbrella sedge, Cyperus difformis); test: as above; details: Flood, 250 g ai/ha; scale 0 to 100 (0 no effect, 100 complete control); 13 to 15 days
Method in brief: as §2

Structure (SMILES) | Plant response rating (0 to 100 scale), Barnyardgrass ([1]; Postemergence, 125 g ai/ha) | Plant response rating (0 to 100 scale), Barnyardgrass ([1]; Postemergence, 500 g ai/ha) | Barnyardgrass plant response rating (0 = no effect, 100 = complete control) ([1]; Preemergence, 125 g ai/ha) | Plant response rating (0 to 100 scale), Barnyardgrass ([1]; Preemergence, 500 g ai/ha) | Plant response rating (0 to 100 scale), Corn (corn (Zea mays); Postemergence, 125 g ai/ha) | Plant response rating (0 to 100 scale), Corn (corn (Zea mays); Postemergence, 500 g ai/ha) | Corn plant response rating (0 = no effect, 100 = complete control) (corn (Zea mays); Preemergence, 125 g ai/ha) | Plant response rating (0 to 100 scale), Corn (corn (Zea mays); Preemergence, 500 g ai/ha) | Plant response rating (0 to 100 scale), Foxtail, Giant ([2]; Postemergence, 125 g ai/ha) | Plant response rating (0 to 100 scale), Foxtail, Giant ([2]; Postemergence, 500 g ai/ha) | Foxtail, Giant plant response rating (0 = no effect, 100 = complete control) ([2]; Preemergence, 125 g ai/ha) | Plant response rating (0 to 100 scale), Foxtail, Giant ([2]; Preemergence, 500 g ai/ha) | Plant response rating (0 to 100 scale), Crabgrass, Large ([3]; Postemergence, 125 g ai/ha) | Plant response rating (0 to 100 scale), Crabgrass, Large ([3]; Postemergence, 500 g ai/ha) | Crabgrass, Large plant response rating (0 = no effect, 100 = complete control) ([3]; Preemergence, 125 g ai/ha) | Plant response rating (0 to 100 scale), Crabgrass, Large ([3]; Preemergence, 500 g ai/ha) | Plant response rating (0 to 100 scale), Morningglory ([4]; Postemergence, 125 g ai/ha) | Plant response rating (0 to 100 scale), Morningglory ([4]; Postemergence, 500 g ai/ha) | Morningglory plant response rating (0 = no effect, 100 = complete control) ([4]; Preemergence, 125 g ai/ha) | Plant response rating (0 to 100 scale), Morningglory ([4]; Preemergence, 500 g ai/ha) | also measured
O=C(c1ccccc1)c1cn(C(=O)C2CC2)nc1-c1cc(Cl)cc(Cl)c1 [Compound 26] | 0 | 0 | 0 | 0 | 0 | 0 | 0 | 0 | 0 | 0 | 0 | 0 | 0 | 0 | 0 | 0 | 0 | 0 | 0 | 0 | Plant response rating (0 to 100 scale), Pigweed ([5]; Postemergence, 125 g ai/ha): 40; Plant response rating (0 to 100 scale), Pigweed ([5]; Postemergence, 500 g ai/ha): 80; Pigweed plant response rating (0 = no effect, 100 = complete control) ([5]; Preemergence, 125 g ai/ha): 0; Plant response rating (0 to 100 scale), Pigweed ([5]; Preemergence, 500 g ai/ha): 0; Plant response rating (0 to 100 scale), Velvetleaf ([6]; Postemergence, 125 g ai/ha): 50; Plant response rating (0 to 100 scale), Velvetleaf ([6]; Postemergence, 500 g ai/ha): 80; Velvetleaf plant response rating (0 = no effect, 100 = complete control) ([6]; Preemergence, 125 g ai/ha): 0; Plant response rating (0 to 100 scale), Velvetleaf ([6]; Preemergence, 500 g ai/ha): 0; Plant response rating (0 to 100 scale), Wheat ([7]; Postemergence, 125 g ai/ha): 0; Plant response rating (0 to 100 scale), Wheat ([7]; Postemergence, 500 g ai/ha): 0; Wheat plant response rating (0 = no effect, 100 = complete control) ([7]; Preemergence, 125 g ai/ha): 0; Plant response rating (0 to 100 scale), Wheat ([7]; Preemergence, 500 g ai/ha): 0; Plant response rating, Barnyardgrass [8]: 0; Plant response rating, Ducksalad [9]: 0; Plant response rating, Rice (rice (Oryza sativa)): 0; Plant response rating, Sedge, Umbrella [10]: 0
O=C(c1cncc(F)c1)c1c[nH]nc1-c1cc(F)cc(Cl)c1 [Compound 22] | 0 | 0 | 0 | 0 | 0 | 0 | 0 | 0 | 0 | 0 | 0 | 0 | 0 | 0 | 0 | 0 | 0 | 0 | 0 | 0 | Plant response rating (0 to 100 scale), Pigweed ([5]; Postemergence, 125 g ai/ha): 70; Plant response rating (0 to 100 scale), Pigweed ([5]; Postemergence, 500 g ai/ha): 100; Pigweed plant response rating (0 = no effect, 100 = complete control) ([5]; Preemergence, 125 g ai/ha): 60; Plant response rating (0 to 100 scale), Pigweed ([5]; Preemergence, 500 g ai/ha): 100; Plant response rating (0 to 100 scale), Velvetleaf ([6]; Postemergence, 125 g ai/ha): 60; Plant response rating (0 to 100 scale), Velvetleaf ([6]; Postemergence, 500 g ai/ha): 80; Velvetleaf plant response rating (0 = no effect, 100 = complete control) ([6]; Preemergence, 125 g ai/ha): 30; Plant response rating (0 to 100 scale), Velvetleaf ([6]; Preemergence, 500 g ai/ha): 60; Plant response rating (0 to 100 scale), Wheat ([7]; Postemergence, 125 g ai/ha): 0; Plant response rating (0 to 100 scale), Wheat ([7]; Postemergence, 500 g ai/ha): 0; Wheat plant response rating (0 = no effect, 100 = complete control) ([7]; Preemergence, 125 g ai/ha): 0; Plant response rating (0 to 100 scale), Wheat ([7]; Preemergence, 500 g ai/ha): 0; Plant response rating, Barnyardgrass [8]: 0; Plant response rating, Ducksalad [9]: 0; Plant response rating, Rice (rice (Oryza sativa)): 0; Plant response rating, Sedge, Umbrella [10]: 0
Cn1cc(C(=O)c2cccnc2)c(-c2cc(Cl)cc(Cl)c2)n1 [Compound 6] | 0 | 0 | 0 | 0 | 0 | 0 | 0 | 0 | 0 | 0 | 0 | 0 | 0 | 0 | 0 | 0 | 0 | 0 | 0 | 0 | Plant response rating (0 to 100 scale), Pigweed ([5]; Postemergence, 125 g ai/ha): 0; Plant response rating (0 to 100 scale), Pigweed ([5]; Postemergence, 500 g ai/ha): 30; Pigweed plant response rating (0 = no effect, 100 = complete control) ([5]; Preemergence, 125 g ai/ha): 0; Plant response rating (0 to 100 scale), Pigweed ([5]; Preemergence, 500 g ai/ha): 20; Plant response rating (0 to 100 scale), Velvetleaf ([6]; Postemergence, 125 g ai/ha): 10; Plant response rating (0 to 100 scale), Velvetleaf ([6]; Postemergence, 500 g ai/ha): 10; Velvetleaf plant response rating (0 = no effect, 100 = complete control) ([6]; Preemergence, 125 g ai/ha): 0; Plant response rating (0 to 100 scale), Velvetleaf ([6]; Preemergence, 500 g ai/ha): 20; Plant response rating (0 to 100 scale), Wheat ([7]; Postemergence, 125 g ai/ha): 0; Plant response rating (0 to 100 scale), Wheat ([7]; Postemergence, 500 g ai/ha): 0; Wheat plant response rating (0 = no effect, 100 = complete control) ([7]; Preemergence, 125 g ai/ha): 0; Plant response rating (0 to 100 scale), Wheat ([7]; Preemergence, 500 g ai/ha): 0; Plant response rating, Barnyardgrass [8]: 0; Plant response rating, Ducksalad [9]: 0; Plant response rating, Rice (rice (Oryza sativa)): 0; Plant response rating, Sedge, Umbrella [10]: 0
C=CCn1cc(C(=O)c2cccnc2)c(-c2cc(Cl)cc(Cl)c2)n1 [Compound 8] | 0 | 0 | 0 | 0 | 0 | 0 | 0 | 0 | 0 | 0 | 0 | 0 | 0 | 0 | 0 | 0 | 0 | 0 | 0 | 0 | Plant response rating (0 to 100 scale), Pigweed ([5]; Postemergence, 125 g ai/ha): 30; Plant response rating (0 to 100 scale), Pigweed ([5]; Postemergence, 500 g ai/ha): 60; Pigweed plant response rating (0 = no effect, 100 = complete control) ([5]; Preemergence, 125 g ai/ha): 0; Plant response rating (0 to 100 scale), Pigweed ([5]; Preemergence, 500 g ai/ha): 50; Plant response rating (0 to 100 scale), Velvetleaf ([6]; Postemergence, 125 g ai/ha): 10; Plant response rating (0 to 100 scale), Velvetleaf ([6]; Postemergence, 500 g ai/ha): 30; Velvetleaf plant response rating (0 = no effect, 100 = complete control) ([6]; Preemergence, 125 g ai/ha): 0; Plant response rating (0 to 100 scale), Velvetleaf ([6]; Preemergence, 500 g ai/ha): 0; Plant response rating (0 to 100 scale), Wheat ([7]; Postemergence, 125 g ai/ha): 0; Plant response rating (0 to 100 scale), Wheat ([7]; Postemergence, 500 g ai/ha): 0; Wheat plant response rating (0 = no effect, 100 = complete control) ([7]; Preemergence, 125 g ai/ha): 0; Plant response rating (0 to 100 scale), Wheat ([7]; Preemergence, 500 g ai/ha): 0; Plant response rating, Barnyardgrass [8]: 0; Plant response rating, Ducksalad [9]: 0; Plant response rating, Rice (rice (Oryza sativa)): 0; Plant response rating, Sedge, Umbrella [10]: 0
